Molecules are shown by their SMILES.

System in the first assay: not listed separately
The assay can be described thus: DRUGMATRIX: Sodium/nucleoside co-transporter radioligand binding (ligand: nitrobenzylthioinosine). It is filed as cell membranes, Cavia porcellus, Dunkin-Hartley, Cerebral cortex, Membrane. As to conditions: Not Active = under 50% inhibition at 10 µM.
In the case of `CCCCN1CCCCC1C(=O)Nc1c(C)cccc1C.Cl` (stereo not drawn) [BUPIVACAINE HYDROCHLORIDE], the IC50 result is listed as “Not Active” and the Ki entry is on record as “Not Active”.
Regarding `O=C1CC2(CCCC2)CC(=O)N1CCCCN1CCN(c2ncccn2)CC1` [BUSPIRONE], the IC50 result is listed as “Not Active” and the Ki entry is “Not Active”.
For `C[C@@]12C(=O)OC(=O)[C@]1(C)[C@H]1CC[C@@H]2O1` [CANTHARIDIN], the IC50 entry is listed as “Not Active” and the Ki entry was “Not Active”.

The target in another assay is Aldo-keto reductase family 1 member B1 (Rattus norvegicus, UniProt P07943). The assay is described as follows: biochemical. The class given is tissue-based, Lens of camera-type eye.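 Also: inhibition of aldose reductase enzyme activity, measured with DL-glyceraldehyde as the substrate; in other assays of this panel Not Active means under 50% inhibition at 10 µM.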
Settings: not given
As for `CCCCN1CCCCC1C(=O)Nc1c(C)cccc1C.Cl` (stereo not drawn) [BUPIVACAINE HYDROCHLORIDE], the IC50 result is recorded as “Not Active”.
Same read-out and setting: the value for `O=C1CC2(CCCC2)CC(=O)N1CCCCN1CCN(c2ncccn2)CC1` [BUSPIRONE] was “Not Active”; that for `C[C@@]12C(=O)OC(=O)[C@]1(C)[C@H]1CC[C@@H]2O1` [CANTHARIDIN] was “Not Active”.

For another assay, the target named is T1, Type-2 angiotensin II receptor (Homo sapiens, UniProt P50052). Also: in other assays of this panel Not Active means under 50% inhibition at 10 µM.
T1 sequence (P50052 whole entry): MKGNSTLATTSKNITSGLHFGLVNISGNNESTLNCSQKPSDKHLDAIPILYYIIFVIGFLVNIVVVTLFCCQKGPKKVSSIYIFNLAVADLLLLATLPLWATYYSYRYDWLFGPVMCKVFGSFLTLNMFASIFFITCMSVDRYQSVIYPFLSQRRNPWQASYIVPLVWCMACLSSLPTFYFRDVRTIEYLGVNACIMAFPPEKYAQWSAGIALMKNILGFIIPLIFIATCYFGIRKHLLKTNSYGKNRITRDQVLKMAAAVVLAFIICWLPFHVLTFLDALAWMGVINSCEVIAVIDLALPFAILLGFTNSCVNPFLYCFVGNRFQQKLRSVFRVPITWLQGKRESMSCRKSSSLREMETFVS
Assay: not given
It is filed as cell-based. As to conditions: cho-k1.
Turning to `CCCCN1CCCCC1C(=O)Nc1c(C)cccc1C.Cl` (stereo not drawn) [BUPIVACAINE HYDROCHLORIDE], the IC50 entry is “Not Active”.
Same read-out and setting: next, `O=C1CC2(CCCC2)CC(=O)N1CCCCN1CCN(c2ncccn2)CC1` [BUSPIRONE]: “Not Active”.
`C[C@@]12C(=O)OC(=O)[C@]1(C)[C@H]1CC[C@@H]2O1` [CANTHARIDIN]: the IC50 result is “Not Active”.

The next assay addresses T2, B2 bradykinin receptor (Homo sapiens, UniProt P30411).
T2 sequence (P30411 whole entry): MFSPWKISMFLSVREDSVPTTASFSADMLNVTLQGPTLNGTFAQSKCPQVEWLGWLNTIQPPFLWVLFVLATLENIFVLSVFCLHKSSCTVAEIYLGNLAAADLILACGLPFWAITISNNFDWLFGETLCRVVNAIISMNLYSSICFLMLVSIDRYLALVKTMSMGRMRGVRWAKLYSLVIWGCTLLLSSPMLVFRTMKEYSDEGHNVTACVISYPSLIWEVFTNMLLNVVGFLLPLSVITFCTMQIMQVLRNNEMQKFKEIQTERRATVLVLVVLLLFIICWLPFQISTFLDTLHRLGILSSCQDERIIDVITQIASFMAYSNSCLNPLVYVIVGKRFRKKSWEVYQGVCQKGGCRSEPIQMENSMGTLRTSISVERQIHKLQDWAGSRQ
Assay: not given
It is filed as cell membranes, Membrane. The following applies: chem-1.
Consider `CCCCN1CCCCC1C(=O)Nc1c(C)cccc1C.Cl` (stereo not drawn) [BUPIVACAINE HYDROCHLORIDE], for which the IC50 entry is “Not Active”.
For the compound `O=C1CC2(CCCC2)CC(=O)N1CCCCN1CCN(c2ncccn2)CC1` [BUSPIRONE], the IC50 result is on record as “Not Active”.
On the same count and under the same terms, the value for `C[C@@]12C(=O)OC(=O)[C@]1(C)[C@H]1CC[C@@H]2O1` [CANTHARIDIN] was “Not Active”.

In another assay the target is T3, C-C chemokine receptor type 4 (Homo sapiens, UniProt P51679). Also: in other assays of this panel Not Active means under 50% inhibition at 10 µM.
T3 sequence (P51679 whole entry): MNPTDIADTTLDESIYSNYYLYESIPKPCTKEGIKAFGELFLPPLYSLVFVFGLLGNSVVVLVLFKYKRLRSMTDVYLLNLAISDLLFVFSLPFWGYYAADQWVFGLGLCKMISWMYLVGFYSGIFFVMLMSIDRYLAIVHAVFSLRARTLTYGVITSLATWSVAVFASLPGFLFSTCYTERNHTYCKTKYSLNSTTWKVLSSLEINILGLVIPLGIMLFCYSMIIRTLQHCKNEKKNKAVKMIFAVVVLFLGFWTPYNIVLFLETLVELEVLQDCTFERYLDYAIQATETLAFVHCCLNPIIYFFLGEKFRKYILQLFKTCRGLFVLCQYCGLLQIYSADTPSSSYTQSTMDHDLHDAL
Assay: not given
It is filed as cell membranes, Membrane. The following applies: chem-1.
On to `CCCCN1CCCCC1C(=O)Nc1c(C)cccc1C.Cl` (stereo not drawn) [BUPIVACAINE HYDROCHLORIDE], for which the IC50 entry is on record as “Not Active”.
For `O=C1CC2(CCCC2)CC(=O)N1CCCCN1CCN(c2ncccn2)CC1` [BUSPIRONE], the IC50 entry is reported as “Not Active”.
On the same count and under the same terms, the value for `C[C@@]12C(=O)OC(=O)[C@]1(C)[C@H]1CC[C@@H]2O1` [CANTHARIDIN] was “Not Active”.

System in the next assay: not listed separately
The assay is described as follows: DRUGMATRIX: Leukotriene, BLT (LTB4) radioligand binding (ligand: [3H]LTB4). As to conditions: u-937; Not Active = under 50% inhibition at 10 µM. It is filed as cell membranes, Membrane.
Take `CCCCN1CCCCC1C(=O)Nc1c(C)cccc1C.Cl` (stereo not drawn) [BUPIVACAINE HYDROCHLORIDE]: the IC50 entry was “Not Active” and the Ki entry was “Not Active”.
For the compound `O=C1CC2(CCCC2)CC(=O)N1CCCCN1CCN(c2ncccn2)CC1` [BUSPIRONE], the IC50 result was “Not Active” and the Ki result is listed as “Not Active”.
Turning to `C[C@@]12C(=O)OC(=O)[C@]1(C)[C@H]1CC[C@@H]2O1` [CANTHARIDIN], the IC50 entry is given as “Not Active” and the Ki entry is listed as “Not Active”.

For a further assay, the target named is Platelet-activating factor receptor (Homo sapiens, UniProt P25105). Also: in other assays of this panel Not Active means under 50% inhibition at 10 µM.
Sequence of Platelet-activating factor receptor (P25105 whole entry): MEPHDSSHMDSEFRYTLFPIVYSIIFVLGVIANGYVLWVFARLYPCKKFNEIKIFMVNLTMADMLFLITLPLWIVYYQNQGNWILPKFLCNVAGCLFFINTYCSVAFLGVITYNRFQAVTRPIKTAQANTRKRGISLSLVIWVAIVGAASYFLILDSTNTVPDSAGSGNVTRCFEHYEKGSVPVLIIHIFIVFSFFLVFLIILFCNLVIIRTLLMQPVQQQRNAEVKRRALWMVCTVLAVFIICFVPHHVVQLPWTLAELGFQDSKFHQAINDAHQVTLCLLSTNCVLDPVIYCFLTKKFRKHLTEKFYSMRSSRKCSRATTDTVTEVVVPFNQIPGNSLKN
Assay: not given
The class given is tissue-based.
Settings: not given
Regarding `CCCCN1CCCCC1C(=O)Nc1c(C)cccc1C.Cl` (stereo not drawn) [BUPIVACAINE HYDROCHLORIDE], the IC50 result was “Not Active”.
Take `O=C1CC2(CCCC2)CC(=O)N1CCCCN1CCN(c2ncccn2)CC1` [BUSPIRONE]: the IC50 result was “Not Active”.
Still for that read-out and setting: the value for `C[C@@]12C(=O)OC(=O)[C@]1(C)[C@H]1CC[C@@H]2O1` [CANTHARIDIN] was “Not Active”.

The target of a further assay is T4, Angiotensin-converting enzyme (Oryctolagus cuniculus, UniProt P12822).
T4 sequence (P12822 whole entry): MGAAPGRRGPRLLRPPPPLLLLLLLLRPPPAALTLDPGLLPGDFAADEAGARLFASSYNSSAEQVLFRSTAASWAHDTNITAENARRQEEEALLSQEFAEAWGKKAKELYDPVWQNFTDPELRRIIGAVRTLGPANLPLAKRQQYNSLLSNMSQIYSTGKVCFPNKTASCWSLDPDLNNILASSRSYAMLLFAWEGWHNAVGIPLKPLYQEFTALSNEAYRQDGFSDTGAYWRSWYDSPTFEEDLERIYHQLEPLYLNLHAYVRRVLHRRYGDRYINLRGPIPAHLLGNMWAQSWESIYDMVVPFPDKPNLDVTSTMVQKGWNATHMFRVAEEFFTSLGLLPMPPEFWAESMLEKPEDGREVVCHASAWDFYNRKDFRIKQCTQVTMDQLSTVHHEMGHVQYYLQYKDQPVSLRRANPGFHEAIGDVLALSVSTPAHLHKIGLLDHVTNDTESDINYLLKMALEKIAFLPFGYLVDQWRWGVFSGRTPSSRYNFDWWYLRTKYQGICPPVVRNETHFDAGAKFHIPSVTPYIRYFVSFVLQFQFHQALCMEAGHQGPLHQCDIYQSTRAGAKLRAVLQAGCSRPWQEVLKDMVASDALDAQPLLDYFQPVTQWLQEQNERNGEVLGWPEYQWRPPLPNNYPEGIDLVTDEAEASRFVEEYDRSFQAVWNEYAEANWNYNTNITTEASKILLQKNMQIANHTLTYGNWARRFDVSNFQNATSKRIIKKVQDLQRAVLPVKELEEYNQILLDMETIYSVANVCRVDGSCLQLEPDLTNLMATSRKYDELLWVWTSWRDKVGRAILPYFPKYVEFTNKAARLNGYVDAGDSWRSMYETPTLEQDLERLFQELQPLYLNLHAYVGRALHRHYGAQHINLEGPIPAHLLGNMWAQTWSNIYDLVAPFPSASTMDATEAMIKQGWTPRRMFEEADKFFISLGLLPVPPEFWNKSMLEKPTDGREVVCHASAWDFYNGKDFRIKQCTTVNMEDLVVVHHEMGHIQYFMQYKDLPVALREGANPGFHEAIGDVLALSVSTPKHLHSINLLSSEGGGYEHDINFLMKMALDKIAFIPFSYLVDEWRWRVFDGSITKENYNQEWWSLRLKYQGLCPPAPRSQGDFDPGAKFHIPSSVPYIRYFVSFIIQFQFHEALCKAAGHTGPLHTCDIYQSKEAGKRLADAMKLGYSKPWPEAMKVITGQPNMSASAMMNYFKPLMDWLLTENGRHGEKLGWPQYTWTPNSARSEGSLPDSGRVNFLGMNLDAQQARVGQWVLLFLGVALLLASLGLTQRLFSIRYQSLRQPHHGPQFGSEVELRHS
Assay: not given
It is filed as tissue-based, Lung.
Settings: not given
With `CCCCN1CCCCC1C(=O)Nc1c(C)cccc1C.Cl` (stereo not drawn) [BUPIVACAINE HYDROCHLORIDE], the IC50 entry is listed as “Not Active”.
Same read-out and setting: the value for `O=C1CC2(CCCC2)CC(=O)N1CCCCN1CCN(c2ncccn2)CC1` [BUSPIRONE] was “Not Active”.
The same measure, in the same setting: next, `C[C@@]12C(=O)OC(=O)[C@]1(C)[C@H]1CC[C@@H]2O1` [CANTHARIDIN]: “Not Active”.

The target in a further assay is Mitogen-activated protein kinase 3 (Homo sapiens, UniProt P27361). The assay can be described thus: DRUGMATRIX: Protein Serine/Threonine Kinase, ERK1 enzyme inhibition (substrate: Myelin Basic Protein). Details: species or system Escherichia coli. As to conditions: Not Active = under 50% inhibition at 10 µM.
Sequence of Mitogen-activated protein kinase 3 (P27361 whole entry): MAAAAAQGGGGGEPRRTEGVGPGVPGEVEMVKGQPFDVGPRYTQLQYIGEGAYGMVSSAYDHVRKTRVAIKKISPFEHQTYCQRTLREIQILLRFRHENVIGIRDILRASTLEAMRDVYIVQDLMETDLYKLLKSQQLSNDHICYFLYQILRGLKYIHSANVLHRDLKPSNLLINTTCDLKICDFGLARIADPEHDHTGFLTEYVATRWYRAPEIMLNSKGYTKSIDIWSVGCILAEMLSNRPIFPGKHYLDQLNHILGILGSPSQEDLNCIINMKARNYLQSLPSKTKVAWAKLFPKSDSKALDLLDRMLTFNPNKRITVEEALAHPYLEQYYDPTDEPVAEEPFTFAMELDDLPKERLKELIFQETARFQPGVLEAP
In the case of `CCCCN1CCCCC1C(=O)Nc1c(C)cccc1C.Cl` (stereo not drawn) [BUPIVACAINE HYDROCHLORIDE], the IC50 entry is recorded as “Not Active”.
On the same count and under the same terms, next, `O=C1CC2(CCCC2)CC(=O)N1CCCCN1CCN(c2ncccn2)CC1` [BUSPIRONE]: “Not Active”; `C[C@@]12C(=O)OC(=O)[C@]1(C)[C@H]1CC[C@@H]2O1` [CANTHARIDIN]: “Not Active”.

Source of the values: ChEMBL document CHEMBL1909046, “DrugMatrix in vitro pharmacology data”.
